Results reported in US20260224588A1, “BENZODIAZEPINONE-DERIVED INHIBITORS OF EGFR AND HER2” (The Research Foundation for the State University of New York, priority 2023, published 2026).

Key:
[1] = target: T1, FGR (Homo sapiens, UniProt P09769); test: KINOMEscan; type: binding; conditions: 1 μM of compound 4; read-out: POC
T1 construct: purchased Eurofins DiscoverX Corporation

[2] = target: T2, SGK (Homo sapiens, UniProt O00141); test: KINOMEscan; type: binding; conditions: 1 μM of compound 4; read-out: POC
T2 construct: purchased Eurofins DiscoverX (KINOMEscan service)
T2 sequence (O00141 whole entry): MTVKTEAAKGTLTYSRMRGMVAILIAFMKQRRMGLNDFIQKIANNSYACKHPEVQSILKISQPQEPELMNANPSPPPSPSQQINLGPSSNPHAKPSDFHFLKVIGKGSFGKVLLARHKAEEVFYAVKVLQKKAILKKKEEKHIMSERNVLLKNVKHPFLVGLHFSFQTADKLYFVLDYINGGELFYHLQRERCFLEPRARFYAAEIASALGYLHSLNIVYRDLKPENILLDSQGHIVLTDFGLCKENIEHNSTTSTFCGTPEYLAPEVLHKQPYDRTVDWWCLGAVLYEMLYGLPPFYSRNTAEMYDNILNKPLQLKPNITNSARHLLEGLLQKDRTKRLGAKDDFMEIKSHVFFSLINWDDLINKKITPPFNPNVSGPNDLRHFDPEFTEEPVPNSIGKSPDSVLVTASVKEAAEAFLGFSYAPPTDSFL

[3] = target: T3, FER (Homo sapiens, UniProt P16591); test: KINOMEscan; type: binding; conditions: 1 μM of compound 4; read-out: POC
T3 construct: purchased Eurofins DiscoverX Corporation

[4] = target: T4, GAK (Homo sapiens, UniProt O14976); test: KINOMEscan; type: binding; conditions: 1 μM of compound 4; read-out: POC
T4 construct: purchased Eurofins DiscoverX Corporation

[5] = target: T5, EPHA6 (Homo sapiens, UniProt Q9UF33); test: KINOMEscan; type: binding; conditions: 1 μM of compound 4; read-out: POC
T5 construct: purchased Eurofins DiscoverX (KINOMEscan service)

[6] = target: T6, EGFR WT (Homo sapiens, UniProt P00533); test: Time-dependent kinase inhibition assay (Sox-based substrate); type: biochemical
T6 construct: EGFR WT, cytoplasmic domain (669-1210), GST-tagged, Carna; purchased Carna 08-115
T6 sequence (P00533 669-1210): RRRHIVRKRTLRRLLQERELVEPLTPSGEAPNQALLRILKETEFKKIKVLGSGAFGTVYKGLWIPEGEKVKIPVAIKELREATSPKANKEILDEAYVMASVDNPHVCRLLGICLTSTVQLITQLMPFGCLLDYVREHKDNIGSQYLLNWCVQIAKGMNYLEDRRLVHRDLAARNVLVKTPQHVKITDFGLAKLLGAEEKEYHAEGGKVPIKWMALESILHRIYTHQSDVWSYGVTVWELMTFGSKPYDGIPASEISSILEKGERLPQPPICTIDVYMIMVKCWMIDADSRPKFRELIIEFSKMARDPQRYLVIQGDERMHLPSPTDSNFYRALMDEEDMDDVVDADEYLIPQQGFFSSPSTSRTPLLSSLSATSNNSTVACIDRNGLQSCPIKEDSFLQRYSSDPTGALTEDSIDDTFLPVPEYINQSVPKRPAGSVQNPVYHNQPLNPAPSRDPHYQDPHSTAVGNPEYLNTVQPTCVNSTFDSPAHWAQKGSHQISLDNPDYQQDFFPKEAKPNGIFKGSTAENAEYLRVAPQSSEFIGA
Procedure: (§1) Time-dependent Kinase Inhibition Assays. Biochemical assays were performed with commercially available EGFR WT, cytoplasmic domain (669-1210), GST-tagged, Carna (Cat #/Lot #: 08-115/21CBS-0127H), EGFR [T790M/L858R] and EGFR [L858R], cytoplasmic domain (669-1210), GST-tagged, Carna (Cat #/Lot #: 08-510/12CBS-0765M). […] BSA was not included in this experiment to prevent interference with irreversible inhibitor characterization via off-target binding. All reactions were run for 240 minutes at 30° C. Time-dependent fluorescence from the Sox-based substrate was monitored in PerkinElmer ProxiPlate-384 Plus, white shallow well microplates (Cat. #6008280) Biotek Synergy Neo 2 microplate reader with excitation (360 nm) and emission (485 nm) wavelengths. 2 was dosed between 0 and 10 μM in 24-point curves with 1.5-fold dilutions. Fluorescence, determined with identical reactions but lacking purified enzyme or crude cell lysate was subtracted from the total fluorescence signal for each time point, with both determined in duplicate, to obtain corrected relative fluorescence units (RFU). Corrected RFU values then were plotted vs. time and the reaction velocity for the first ~40 min (initial reaction rates) were determined from the slope using GraphPad Prism (La Jolla, CA) with units of RFU/min.

[7] = target: T7, EGFR [T790M/L858R] (Homo sapiens, UniProt P00533, L858R/T790M); test: as above; type: biochemical
T7 construct: EGFR [T790M/L858R] and EGFR [L858R], cytoplasmic domain (669-1210), GST-tagged, Carna; GST; purchased Carna 08-510
T7 sequence (P00533 669-1210 T790M/L858R): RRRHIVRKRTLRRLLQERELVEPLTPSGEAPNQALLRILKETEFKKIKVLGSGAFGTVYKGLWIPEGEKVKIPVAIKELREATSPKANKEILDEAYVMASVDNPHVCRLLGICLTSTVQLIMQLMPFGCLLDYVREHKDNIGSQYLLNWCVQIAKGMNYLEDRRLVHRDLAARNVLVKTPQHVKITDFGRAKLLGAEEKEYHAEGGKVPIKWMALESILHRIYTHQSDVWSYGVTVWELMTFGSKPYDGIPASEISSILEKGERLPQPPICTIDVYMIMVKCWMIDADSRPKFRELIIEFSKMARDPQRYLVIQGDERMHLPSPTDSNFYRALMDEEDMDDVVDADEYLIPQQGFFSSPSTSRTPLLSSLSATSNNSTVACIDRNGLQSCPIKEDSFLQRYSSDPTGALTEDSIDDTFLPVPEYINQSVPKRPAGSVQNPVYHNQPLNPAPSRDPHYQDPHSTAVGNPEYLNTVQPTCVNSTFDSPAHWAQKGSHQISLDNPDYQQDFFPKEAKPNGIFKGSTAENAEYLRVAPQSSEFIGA
Procedure: as §1

[8] = target: CDC2L1 (Homo sapiens, UniProt P21127); test: KINOMEscan; type: binding; conditions: 1 μM of compound 4; read-out: POC
Sequence of CDC2L1 (P21127 whole entry): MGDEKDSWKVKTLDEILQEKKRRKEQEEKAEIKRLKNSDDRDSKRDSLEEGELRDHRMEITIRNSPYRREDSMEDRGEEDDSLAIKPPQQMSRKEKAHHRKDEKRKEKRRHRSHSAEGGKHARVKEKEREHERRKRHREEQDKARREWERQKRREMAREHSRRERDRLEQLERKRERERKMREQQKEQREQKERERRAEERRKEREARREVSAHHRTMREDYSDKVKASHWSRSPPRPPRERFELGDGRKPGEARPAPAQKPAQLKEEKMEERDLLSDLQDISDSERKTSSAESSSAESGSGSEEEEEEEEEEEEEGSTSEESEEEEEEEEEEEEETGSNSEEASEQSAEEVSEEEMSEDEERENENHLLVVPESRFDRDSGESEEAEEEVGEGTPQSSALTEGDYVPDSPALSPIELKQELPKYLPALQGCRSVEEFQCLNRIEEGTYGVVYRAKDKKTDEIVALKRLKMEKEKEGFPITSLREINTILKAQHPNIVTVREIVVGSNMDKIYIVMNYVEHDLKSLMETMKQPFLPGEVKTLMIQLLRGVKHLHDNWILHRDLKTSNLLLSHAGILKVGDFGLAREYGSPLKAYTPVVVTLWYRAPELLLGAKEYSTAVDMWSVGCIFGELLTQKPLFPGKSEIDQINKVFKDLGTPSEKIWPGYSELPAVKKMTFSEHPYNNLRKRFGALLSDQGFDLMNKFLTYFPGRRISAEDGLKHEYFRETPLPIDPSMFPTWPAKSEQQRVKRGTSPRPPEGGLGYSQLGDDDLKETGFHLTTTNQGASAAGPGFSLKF

[9] = target: T8, ERK4 (Homo sapiens, UniProt P31152); test: KINOMEscan; type: binding; conditions: 1 μM of compound 4; read-out: POC
T8 construct: purchased Eurofins DiscoverX Corporation

[10] = target: NEK2 (Homo sapiens, UniProt P51955); test: KINOMEscan; type: binding; conditions: 1 μM of compound 4; read-out: POC
Sequence of NEK2 (P51955 whole entry): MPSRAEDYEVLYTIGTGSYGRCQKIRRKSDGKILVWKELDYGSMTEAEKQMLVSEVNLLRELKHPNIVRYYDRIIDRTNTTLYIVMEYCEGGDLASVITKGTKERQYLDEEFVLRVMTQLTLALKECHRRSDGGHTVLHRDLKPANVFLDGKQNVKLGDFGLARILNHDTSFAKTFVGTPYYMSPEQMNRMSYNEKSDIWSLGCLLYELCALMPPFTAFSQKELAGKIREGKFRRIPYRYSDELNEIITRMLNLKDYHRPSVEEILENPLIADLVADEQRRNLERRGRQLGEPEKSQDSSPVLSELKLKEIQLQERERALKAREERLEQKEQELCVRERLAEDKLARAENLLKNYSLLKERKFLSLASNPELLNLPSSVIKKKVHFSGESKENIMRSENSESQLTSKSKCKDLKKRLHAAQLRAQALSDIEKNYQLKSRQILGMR

[11] = target: AKT1 (Homo sapiens, UniProt P31749); test: KINOMEscan; type: binding; conditions: 1 μM of compound 4; read-out: POC
[12] = target: INSRR (Homo sapiens, UniProt P14616); test: KINOMEscan; type: binding; conditions: 1 μM of compound 4; read-out: POC
[13] = target: CLK1 (Homo sapiens, UniProt P49759); test: KINOMEscan; type: binding; conditions: 1 μM of compound 4; read-out: POC
[14] = target: ALK(L1196M) (Homo sapiens, UniProt Q9UM73, L1196M); test: KINOMEscan; type: binding; conditions: 1 μM of compound 4; read-out: POC
[15] = target: T9, TESK1 (Homo sapiens, UniProt Q15569); test: KINOMEscan; type: binding; conditions: 1 μM of compound 4; read-out: POC
T9 construct: purchased Eurofins DiscoverX Corporation

[16] = target: T10, SRMS (Homo sapiens, UniProt Q9H3Y6); test: KINOMEscan; type: binding; conditions: 1 μM of compound 4; read-out: POC
T10 construct: purchased Eurofins DiscoverX (KINOMEscan service)
T10 sequence (Q9H3Y6 whole entry): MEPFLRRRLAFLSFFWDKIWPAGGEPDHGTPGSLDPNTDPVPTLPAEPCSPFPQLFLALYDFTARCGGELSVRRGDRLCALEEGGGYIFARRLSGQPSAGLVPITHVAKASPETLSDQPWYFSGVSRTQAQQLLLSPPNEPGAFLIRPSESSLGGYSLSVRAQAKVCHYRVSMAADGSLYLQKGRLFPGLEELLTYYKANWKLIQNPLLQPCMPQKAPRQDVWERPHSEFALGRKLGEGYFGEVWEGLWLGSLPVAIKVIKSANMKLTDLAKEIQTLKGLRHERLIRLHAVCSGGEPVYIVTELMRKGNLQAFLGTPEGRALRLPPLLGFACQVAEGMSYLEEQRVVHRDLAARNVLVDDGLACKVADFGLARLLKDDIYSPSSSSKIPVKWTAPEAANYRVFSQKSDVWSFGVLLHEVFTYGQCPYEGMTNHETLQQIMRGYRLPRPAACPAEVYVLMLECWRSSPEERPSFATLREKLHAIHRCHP

[17] = target: T11, NLK (Homo sapiens, UniProt Q9UBE8); test: KINOMEscan; type: binding; conditions: 1 μM of compound 4; read-out: POC
T11 construct: purchased Eurofins DiscoverX Corporation (KINOMEscan)
T11 sequence (Q9UBE8 whole entry): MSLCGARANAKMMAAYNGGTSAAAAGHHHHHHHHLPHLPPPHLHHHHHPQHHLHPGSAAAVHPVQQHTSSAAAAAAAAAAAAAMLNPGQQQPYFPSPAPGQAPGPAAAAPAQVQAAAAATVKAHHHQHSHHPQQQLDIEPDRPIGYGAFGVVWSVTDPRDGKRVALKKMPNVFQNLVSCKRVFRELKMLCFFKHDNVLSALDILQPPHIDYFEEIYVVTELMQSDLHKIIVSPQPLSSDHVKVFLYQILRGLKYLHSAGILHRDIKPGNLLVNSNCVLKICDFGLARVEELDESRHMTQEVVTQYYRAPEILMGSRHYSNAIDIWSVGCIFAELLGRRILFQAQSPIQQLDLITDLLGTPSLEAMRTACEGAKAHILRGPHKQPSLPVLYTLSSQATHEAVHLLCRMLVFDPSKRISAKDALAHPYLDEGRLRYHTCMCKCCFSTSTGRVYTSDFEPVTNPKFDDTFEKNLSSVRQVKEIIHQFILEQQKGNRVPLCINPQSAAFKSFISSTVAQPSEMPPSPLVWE

[18] = target: CDK5 (Homo sapiens, UniProt Q00535); test: KINOMEscan; type: binding; conditions: 1 μM of compound 4; read-out: POC
[19] = target: PKN1 (Homo sapiens, UniProt Q16512); test: KINOMEscan; type: binding; conditions: 1 μM of compound 4; read-out: POC
[20] = target: T12, TIE2 (Homo sapiens, UniProt Q02763); test: KINOMEscan; type: binding; conditions: 1 μM of compound 4; read-out: POC
T12 construct: purchased Eurofins DiscoverX Corporation

[21] = target: T13, RSK4(Kin.Dom.1-N-terminal) (Homo sapiens, UniProt Q9UK32); test: KINOMEscan; type: binding; conditions: 1 μM of compound 4; read-out: POC
T13 construct: RSK4(Kin.Dom.1-N-terminal); purchased Eurofins DiscoverX (KINOMEscan service)
T13 sequence (Q9UK32 73-330 limits assumed): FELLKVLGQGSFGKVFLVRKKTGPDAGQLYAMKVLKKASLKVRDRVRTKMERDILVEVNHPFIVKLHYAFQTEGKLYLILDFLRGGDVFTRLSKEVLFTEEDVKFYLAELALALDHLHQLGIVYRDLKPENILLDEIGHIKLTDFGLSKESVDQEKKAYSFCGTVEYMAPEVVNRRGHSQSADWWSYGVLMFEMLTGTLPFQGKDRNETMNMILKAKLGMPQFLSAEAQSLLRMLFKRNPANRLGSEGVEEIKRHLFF

[22] = target: NEK3 (Homo sapiens, UniProt P51956); test: KINOMEscan; type: binding; conditions: 1 μM of compound 4; read-out: POC
[23] = target: T14, GRK1 (Homo sapiens, UniProt Q15835); test: KINOMEscan; type: binding; conditions: 1 μM of compound 4; read-out: POC
T14 construct: purchased Eurofins DiscoverX Corporation
T14 sequence (Q15835 whole entry): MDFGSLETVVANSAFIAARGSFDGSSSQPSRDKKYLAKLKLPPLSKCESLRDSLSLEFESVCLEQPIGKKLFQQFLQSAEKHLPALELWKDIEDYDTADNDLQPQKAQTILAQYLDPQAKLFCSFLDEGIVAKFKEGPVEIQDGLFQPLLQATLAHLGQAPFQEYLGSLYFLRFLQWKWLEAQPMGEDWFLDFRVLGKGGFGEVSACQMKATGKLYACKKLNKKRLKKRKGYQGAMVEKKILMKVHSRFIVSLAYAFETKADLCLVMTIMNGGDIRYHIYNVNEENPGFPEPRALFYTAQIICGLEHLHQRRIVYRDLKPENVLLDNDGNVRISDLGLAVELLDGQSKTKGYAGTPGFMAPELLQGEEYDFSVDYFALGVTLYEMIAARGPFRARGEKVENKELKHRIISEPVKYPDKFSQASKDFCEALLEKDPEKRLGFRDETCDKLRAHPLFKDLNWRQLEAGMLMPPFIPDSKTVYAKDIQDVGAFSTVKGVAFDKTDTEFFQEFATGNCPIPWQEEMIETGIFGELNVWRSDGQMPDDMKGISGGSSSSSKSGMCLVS

[24] = target: BRSK2 (Homo sapiens, UniProt Q8IWQ3); test: KINOMEscan; type: binding; conditions: 1 μM of compound 4; read-out: POC
[25] = target: T15, RIPK2 (Homo sapiens, UniProt O43353); test: KINOMEscan; type: binding; conditions: 1 μM of compound 4; read-out: POC
T15 construct: purchased Eurofins DiscoverX Corporation (KINOMEscan screening service)

[26] = target: CAMK1D (Homo sapiens, UniProt Q8IU85); test: KINOMEscan; type: binding; conditions: 1 μM of compound 4; read-out: POC
Sequence of CAMK1D (Q8IU85 whole entry): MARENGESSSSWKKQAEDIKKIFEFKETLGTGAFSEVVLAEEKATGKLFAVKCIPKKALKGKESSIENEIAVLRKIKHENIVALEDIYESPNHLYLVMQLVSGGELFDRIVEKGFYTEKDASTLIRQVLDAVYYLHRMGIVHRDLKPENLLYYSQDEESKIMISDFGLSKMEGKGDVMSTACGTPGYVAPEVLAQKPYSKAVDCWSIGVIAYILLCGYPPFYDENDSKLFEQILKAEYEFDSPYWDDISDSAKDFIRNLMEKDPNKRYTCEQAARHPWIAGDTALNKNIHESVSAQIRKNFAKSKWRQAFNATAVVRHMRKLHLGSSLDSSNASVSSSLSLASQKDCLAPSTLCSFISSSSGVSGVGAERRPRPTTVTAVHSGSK

[27] = target: T16, YES (Homo sapiens, UniProt P07947); test: KINOMEscan; type: binding; conditions: 1 μM of compound 4; read-out: POC
T16 construct: purchased Eurofins DiscoverX

[28] = target: MAPKAPK5 (Homo sapiens, UniProt Q8IW41); test: KINOMEscan; type: binding; conditions: 1 μM of compound 4; read-out: POC
[29] = target: T17, PDGFRB (Homo sapiens, UniProt P09619); test: KINOMEscan; type: binding; conditions: 1 μM of compound 4; read-out: POC
T17 construct: purchased Eurofins DiscoverX Corporation (KINOMEscan)

C=CC(=O)Nc1ccc(OC)c(Nc2cc(-c3[nH]c(CC)nc3-c3cccc(NC(=O)c4cccc5c4NC(=O)c4ccccc4N5)c3)ccn2)c1 [Compound 4, N-(3-(5-(2-((5-Acrylamido-2-methoxyphenyl)amino)pyridin-4-yl)-2-ethyl-1H-imidazol-4-yl)phenyl)-11-oxo-10,11-dihydro-5H-dibenzo[b,e][1,4]diazepine-9-carboxamide] was tested, and the remaining binding at 1 µM [1] was 19%, the remaining binding at 1 µM [2] was 86% and the remaining binding at 1 µM [3] was 36%. For the same compound, the remaining binding at 1 µM [4] was 16%, the remaining binding at 1 µM [5] was 90% and the Ki [6] was 1200 ± 40 nM. For the same compound, the kinact [6] was 0.003 s⁻¹, the kinact/KI [6] was 2500 ± 10 M⁻¹ s⁻¹ and the Ki ([7]; read-out: KI, LRTM) was 1600 ± 100 nM. The kinact ([7]; read-out: kinact, LRTM (converted)) was 0.00167 s⁻¹, the kinact/KI ([7]; read-out: kinact/KI, LRTM) was 1070 ± 40 M⁻¹ s⁻¹ and the remaining binding at 1 µM [8] was 100%. It also gave a remaining binding at 1 µM [9] of 100%, a remaining binding at 1 µM [10] of 98% and a remaining binding at 1 µM [11] of 89%. The remaining binding at 1 µM [12] was 87%, the remaining binding at 1 µM [13] was 100% and the remaining binding at 1 µM [14] was 89%. The remaining binding at 1 µM [15] was 94%, the remaining binding at 1 µM [16] was 61% and the remaining binding at 1 µM [17] was 48%. The remaining binding at 1 µM [18] was 100%, the remaining binding at 1 µM [19] was 88% and the remaining binding at 1 µM [20] was 71%. It also gave a remaining binding at 1 µM [21] of 100%, a remaining binding at 1 µM [22] of 100% and a remaining binding at 1 µM [23] of 94%. It also gave a remaining binding at 1 µM [24] of 93%, a remaining binding at 1 µM [25] of 62% and a remaining binding at 1 µM [26] of 100%. It also gave a remaining binding at 1 µM [27] of 20%, a remaining binding at 1 µM [28] of 100% and a remaining binding at 1 µM [29] of 100%.
